Measured values from ChEMBL document CHEMBL4706519, “Evaluation of N-phenyl-2-aminothiazoles for treatment of multi-drug resistant and intracellular Staphylococcus aureus infections” (Eur J Med Chem, 2020).
Values after ≈ are worked out from the molar mass of the structure shown.

Experiments:
[1] = test system: Escherichia coli; assay: Antibacterial activity against wild type Escherichia coli BW25113 assessed as inhibition of bacterial growth measured after 18 to 20 hrs by broth microdilution method; format: functional; settings: time 18-20 hrs
[2] = test system: Escherichia coli; assay: Antibacterial activity against Escherichia coli JW55031 harboring toIC efflux mutant assessed as inhibition of bacterial growth measured after 18 to 20 hrs by broth microdilution method; format: functional; settings: time 18-20 hrs
[3] = test system: Staphylococcus aureus; assay: Antibacterial activity against methicillin-resistant Staphylococcus aureus USA300 NRS384 assessed as inhibition of bacterial growth measured after 18 to 20 hrs by broth microdilution method; format: functional; settings: time 18-20 hrs
[4] = test system: Staphylococcus aureus; assay: Ratio of MIC for methicillin-resistant Staphylococcus aureus USA400 NRS123 measured after 14th passage to MIC for methicillin-resistant Staphylococcus aureus USA400 NRS123 measured after 18 to 20 hrs by broth microdilution assay; format: functional
[5] = test system: Streptococcus pneumoniae; assay: Antibacterial activity against methicillin-resistant Streptococcus pneumoniae ATCC 700677 assessed as inhibition of bacterial growth measured after 18 to 20 hrs by CLSI protocol based broth microdilution method; format: functional; settings: time 18-20 hrs
[6] = test system: Staphylococcus epidermidis; assay: Antibacterial activity against methicillin-resistant Staphylococcus epidermidis NRS101 assessed as inhibition of bacterial growth measured after 18 to 20 hrs by CLSI protocol based broth microdilution method; format: functional; settings: time 18-20 hrs
[7] = test system: Staphylococcus aureus; assay: Antibacterial activity against vancomycin-resistant Staphylococcus aureus 10 assessed as inhibition of bacterial growth measured after 18 to 20 hrs by CLSI protocol based broth microdilution method; format: functional; settings: time 18-20 hrs
[8] = test system: Listeria monocytogenes; assay: Antibacterial activity against Listeria monocytogenes ATCC 19111 assessed as inhibition of bacterial growth measured after 18 to 20 hrs by CLSI protocol based broth microdilution method; format: functional; settings: time 18-20 hrs
[9] = test system: Streptococcus pneumoniae; assay: Antibacterial activity against cephalosporin-resistant Streptococcus pneumoniae ATCC 51916 assessed as inhibition of bacterial growth measured after 18 to 20 hrs by CLSI protocol based broth microdilution method; format: functional; settings: time 18-20 hrs
[10] = test system: Staphylococcus aureus; assay: microbe, parasite or virus in culture; settings: NRS107
[11] = test system: Staphylococcus aureus; assay: microbe, parasite or virus in culture; settings: NRS119
[12] = test system: Staphylococcus aureus; assay: microbe, parasite or virus in culture; settings: USA400 NRS123
[13] = test system: Staphylococcus aureus; assay: microbe, parasite or virus in culture; settings: USA700 NRS386
[14] = test system: Staphylococcus aureus; assay: microbe, parasite or virus in culture; settings: USA500 NRS385
[15] = test system: Enterococcus faecium; assay: Antibacterial activity against vancomycin-resistant Enterococcus faecium ATCC 700221 assessed as inhibition of bacterial growth measured after 18 to 20 hrs by CLSI protocol based broth microdilution method; format: functional; settings: time 18-20 hrs
[16] = test system: Enterococcus faecalis; assay: microbe, parasite or virus in culture; settings: ATCC 51299
[17] = test system: Staphylococcus aureus; assay: Antibacterial activity against vancomycin-resistant Staphylococcus aureus 12 assessed as inhibition of bacterial growth measured after 18 to 20 hrs by CLSI protocol based broth microdilution method; format: functional; settings: time 18-20 hrs
[18] = test system: Staphylococcus aureus; assay: microbe, parasite or virus in culture; settings: ATCC 6538
[19] = physchem; settings: phosphate-buffered saline, pH 7.4
[20] = test system: Staphylococcus aureus; assay: Bactericidal activity against methicillin-resistant Staphylococcus aureus USA400 NRS123 assessed as post-antibiotic effect at 5 times MIC incubated for 2 hrs followed by compound wash-out by viable plate count method; format: functional

Work on C/C(=N\NC(=N)N)c1ccc(Nc2nc(-c3ccc(Br)cc3)cs2)cc1 yielded an MIC [1] of 4 µg/mL (≈ 9.32 µM), an MIC [2] of 2 µg/mL (≈ 4.66 µM) and an MIC [3] of 16 µg/mL (≈ 37.3 µM).

COc1ccc(-c2csc(Nc3ccc(C(C)=O)cc3)n2)cc1 showed an MIC [1] of over 64 µg/mL, an MIC [2] of over 64 µg/mL and an MIC [3] of over 64 µg/mL.

For COc1ccc(-c2csc(Nc3ccc(/C(C)=N/NC(N)=S)cc3)n2)cc1, the MIC [1] was over 64 µg/mL, the MIC [2] was over 64 µg/mL and the MIC [3] was over 64 µg/mL.

With C/C(=N\NC(N)=O)c1ccc(Nc2nc(-c3ccc(Br)cc3)cs2)cc1 the MIC [1] was over 64 µg/mL, the MIC [2] was over 64 µg/mL and the MIC [3] was over 64 µg/mL.

For COc1ccc(-c2csc(Nc3ccc(/C(C)=N/NC(N)=O)cc3)n2)cc1, the MIC [1] was over 64 µg/mL, the MIC [2] was over 64 µg/mL and the MIC [3] was over 64 µg/mL.

In the case of CC(=O)c1ccc(Nc2nc(-c3ccccc3)cs2)cc1, the MIC [1] is reported as over 64 µg/mL, the MIC [2] is reported as over 64 µg/mL and the MIC [3] is reported as over 64 µg/mL.

In the case of C/C(=N\NC(N)=O)c1ccc(Nc2nc(-c3ccc(Cl)cc3)cs2)cc1, the MIC [1] is reported as over 64 µg/mL, the MIC [2] is reported as over 64 µg/mL and the MIC [3] is reported as over 64 µg/mL.

Work on CC(=O)c1ccc(Nc2nc(-c3ccc(Br)cc3)cs2)cc1 yielded an MIC [1] of over 64 µg/mL, an MIC [2] of over 64 µg/mL and an MIC [3] of over 64 µg/mL.

Compound C/C(=N\NC(N)=S)c1ccc(Nc2nc(-c3ccccc3)cs2)cc1 has an MIC [1] of over 64 µg/mL, an MIC [2] of over 64 µg/mL and an MIC [3] of over 64 µg/mL.

Work on C/C(=N\NC(N)=O)c1ccc(Nc2nc(-c3ccc(C)cc3)cs2)cc1 yielded an MIC [1] of over 64 µg/mL, an MIC [2] of 32 µg/mL (≈ 87.6 µM) and an MIC [3] of 32 µg/mL (≈ 87.6 µM).

Compound CC(=O)c1ccc(Nc2nc(-c3ccc(C)cc3)cs2)cc1 has an MIC [1] of over 64 µg/mL, an MIC [2] of 64 µg/mL (≈ 208 µM) and an MIC [3] of over 64 µg/mL.

For C/C(=N\NC(N)=S)c1ccc(Nc2nc(-c3ccc(Br)cc3)cs2)cc1, the MIC [1] was over 64 µg/mL, the MIC [2] was over 64 µg/mL and the MIC [3] was over 64 µg/mL.

C/C(=N\NC(N)=S)c1ccc(Nc2nc(-c3ccc(Cl)cc3)cs2)cc1 showed an MIC [1] of over 64 µg/mL, an MIC [2] of 64 µg/mL (≈ 159 µM) and an MIC [3] of 32 µg/mL (≈ 79.6 µM).

Compound C/C(=N\NC(N)=O)c1ccc(Nc2nc(-c3ccccc3)cs2)cc1 has an MIC [1] of over 64 µg/mL, an MIC [2] of over 64 µg/mL and an MIC [3] of over 64 µg/mL.

Work on C/C(=N\NC(N)=S)c1ccc(Nc2nc(-c3ccc(C)cc3)cs2)cc1 yielded an MIC [1] of over 64 µg/mL, an MIC [2] of over 64 µg/mL and an MIC [3] of over 64 µg/mL.

Work on CC(=O)c1ccc(Nc2nc(-c3ccc(Cl)cc3)cs2)cc1 yielded an MIC [1] of over 64 µg/mL, an MIC [2] of over 64 µg/mL and an MIC [3] of over 64 µg/mL.

COc1ccc(-c2csc(Nc3ccc(/C(C)=N/NC(=N)N)cc3)n2)cc1 gave an MIC [1] of 4 µg/mL (≈ 10.5 µM), an MIC [2] of 2 µg/mL (≈ 5.26 µM) and an MIC [3] of 32 µg/mL (≈ 84.1 µM).

With O=C(O)c1cn(C2CC2)c2cc(N3CCNCC3)c(F)cc2c1=O [CIPROFLOXACIN] the Ratio [4] was 127.

With CN[C@@H]1[C@@H](O)[C@@H](O[C@@H]2[C@@H](O)[C@H](O[C@H]3O[C@H]([C@@H](C)N)CC[C@H]3N)[C@@H](N)C[C@H]2N)OC[C@]1(C)O [GENTAMICIN C2] the MIC [1] was 0.25 µg/mL (≈ 0.539 µM) and the MIC [2] was 0.25 µg/mL (≈ 0.539 µM).

Compound CC(=O)NC[C@H]1CN(c2ccc(N3CCOCC3)c(F)c2)C(=O)O1 [LINEZOLID] has an MBC [5] of 16 µg/mL (≈ 47.4 µM), an MBC [6] of 16 µg/mL (≈ 47.4 µM) and an MIC [6] of 1 µg/mL (≈ 2.96 µM). The MBC [7] was over 64 µg/mL, the MIC [7] was 1 µg/mL (≈ 2.96 µM) and the MBC [8] was 16 µg/mL (≈ 47.4 µM). The MIC [8] was at most 0.5 µg/mL, the MBC [9] was 32 µg/mL (≈ 94.9 µM) and the MBC [10] was 64 µg/mL (≈ 190 µM). For the same compound, the MIC [10] was 1 µg/mL (≈ 2.96 µM), the MBC [11] was over 64 µg/mL and the MIC [11] was 64 µg/mL (≈ 190 µM). The MBC [12] was 32 µg/mL (≈ 94.9 µM), the MIC [12] was 1 µg/mL (≈ 2.96 µM) and the MBC [13] was 64 µg/mL (≈ 190 µM). For the same compound, the MBC [14] was 32 µg/mL (≈ 94.9 µM), the MIC [14] was 1 µg/mL (≈ 2.96 µM) and the MBC [15] was 16 µg/mL (≈ 47.4 µM). It also gave an MIC [15] of 1 µg/mL (≈ 2.96 µM), an MBC [16] of 16 µg/mL (≈ 47.4 µM) and an MBC [17] of 64 µg/mL (≈ 190 µM). It also gave an MIC [17] of 1 µg/mL (≈ 2.96 µM), an MBC [18] of 16 µg/mL (≈ 47.4 µM) and an MIC [18] of 1 µg/mL (≈ 2.96 µM).

For CO[C@H]1/C=C/O[C@@]2(C)Oc3c(C)c(O)c4c(O)c(c(/C=N/N5CCN(C)CC5)c(O)c4c3C2=O)NC(=O)/C(C)=C\C=C\[C@H](C)[C@H](O)[C@@H](C)[C@@H](O)[C@@H](C)[C@H](OC(C)=O)[C@@H]1C [RIFAMPIN], the solubility kinetic at 2 h [19] was 183 µM (≈ 151 µg/mL).

Compound CN[C@H](CC(C)C)C(=O)N[C@H]1C(=O)N[C@@H](CC(N)=O)C(=O)N[C@H]2C(=O)N[C@H]3C(=O)N[C@H](C(=O)N[C@H](C(=O)O)c4cc(O)cc(O)c4-c4cc3ccc4O)[C@H](O)c3ccc(c(Cl)c3)Oc3cc2cc(c3O[C@@H]2O[C@H](CO)[C@@H](O)[C@H](O)[C@H]2O[C@H]2C[C@](C)(N)[C@H](O)[C@H](C)O2)Oc2ccc(cc2Cl)[C@H]1O [VANCOMYCIN] has an MIC [5] of 2 µg/mL (≈ 1.38 µM), an MBC [6] of 2 µg/mL (≈ 1.38 µM) and an MBC [7] of over 64 µg/mL. For the same compound, the MIC [7] was 64 µg/mL (≈ 44.2 µM), the MIC [8] was 1 µg/mL (≈ 0.69 µM) and the MIC [9] was 1 µg/mL (≈ 0.69 µM). For the same compound, the MBC [10] was 2 µg/mL (≈ 1.38 µM), the MBC [11] was 2 µg/mL (≈ 1.38 µM) and the MBC [12] was 1 µg/mL (≈ 0.69 µM). It also gave an MBC [13] of 1 µg/mL (≈ 0.69 µM), an MBC [14] of 1 µg/mL (≈ 0.69 µM) and an MBC [15] of over 64 µg/mL. It also gave an MIC [15] of over 64 µg/mL, an MBC [16] of 64 µg/mL (≈ 44.2 µM) and an MIC [16] of 32 µg/mL (≈ 22.1 µM). It also gave an MBC [17] of 64 µg/mL (≈ 44.2 µM), an MIC [17] of 64 µg/mL (≈ 44.2 µM) and a PAE [20] of 2 h. For the same compound, the MBC [18] was 2 µg/mL (≈ 1.38 µM).
